Counter-ions that a name gives are not always drawn. Like-named read-outs stand apart in the source and are kept apart here.
Columns and labels:
[1] = system: Staphylococcus aureus; experiment: turbidometric bacterial growth inhibition on a 96 well plate; conditions: for percent growth inhibition S. aureus 4 h / percent growth inhibition S. aureus 24 h: compound 1 mg/ml; for inhibition at 1000 µg/mL / inhibition at 0.1 µg/mL / inhibition at 1 µg/mL: Staphylococcus aureus
Experimental: (§1) The antimicrobial efficiency of betulin derived compounds against Staphylococcus aureus, Staphylococcus epidemidis, Micrococcus luteus and Bacillus subtilis was studied using a turbidometric method on a 96 well plate.
(§2) After juvenescence, suspension cultivation was prepared from the bacterial strains in the Todd-Hewitt broth. The suspension was introduced with a pipette to a 96 well plate, followed by the addition of the compound to be tested (3 parallel tests for each compound). […] Erythromycin was used as the control. Bacterial growth was monitored by measuring the absorbances of the samples at 620 nm at 0, 1, 2, 3, 4 and 24 hours. The sample plate was incubated at 37° C. in a shaker (250 rpm) between the measurements. Effects of the compounds on bacterial growth were evaluated by comparison of the growths of exposed and unexposed samples.

[2] = system: S. epidermidis; experiment: as above; conditions: for percent growth inhibition S. epidermidis 4 h / percent growth inhibition S. epidermidis 24 h: compound 1 mg/ml; for inhibition at 1000 µg/mL / inhibition at 0.1 µg/mL / inhibition at 1 µg/mL: Staphylococcus epidermidis
Experimental: as §1, §2

[3] = system: Bacillus subtilis; experiment: as above; conditions: for percent growth inhibition B. subtilis 4 h / percent growth inhibition B. subtilis 24 h: compound 1 mg/ml; for inhibition at 1000 µg/mL / inhibition at 0.1 µg/mL / inhibition at 1 µg/mL: Bacillus subtilis
Experimental: as §1, §2

[4] = system: Micrococcus luteus; experiment: as above; conditions: for percent growth inhibition M. luteus 4 h / percent growth inhibition M. luteus 24 h: compound 1 mg/ml; for inhibition at 1000 µg/mL / inhibition at 0.1 µg/mL / inhibition at 1 µg/mL: Micrococcus luteus
Experimental: as §1, §2

[5] = system: bacteria; experiment: antibacterial activity of compounds derived from betulin (summary statement); format: cell-based; conditions: already at a concentration of 1 μg/ml
Source text: Erythromycin was used as the control.

[6] = 4 h, read-out: percent growth inhibition S. aureus 4 h
[7] = 24 h, read-out: percent growth inhibition S. aureus 24 h
[8] = 4 h, read-out: percent growth inhibition S. epidermidis 4 h
[9] = 24 h, read-out: percent growth inhibition S. epidermidis 24 h
[10] = 4 h, read-out: percent growth inhibition B. subtilis 4 h
[11] = 24 h, read-out: percent growth inhibition B. subtilis 24 h
[12] = 4 h, read-out: percent growth inhibition M. luteus 4 h
[13] = 24 h, read-out: percent growth inhibition M. luteus 24 h

3,28-C18-dialkenylsuccinic acid diester of betulin [Compound 20]
percent growth inhibition S. aureus 4 h ([1]; 4 h): 0.0%
percent growth inhibition S. aureus 24 h ([1]; 24 h): 0.0%
percent growth inhibition S. epidermidis 4 h ([2]; 4 h): 0.0%
percent growth inhibition S. epidermidis 24 h ([2]; 24 h): 0.0%
percent growth inhibition B. subtilis 4 h ([3]; 4 h): 0.0%
percent growth inhibition B. subtilis 24 h ([3]; 24 h): 9.0%
percent growth inhibition M. luteus 4 h ([4]; 4 h): 0.0%
percent growth inhibition M. luteus 24 h ([4]; 24 h): 12.6%

3,28-diisostearic acid ester of betulin [Compound 1]
percent growth inhibition S. aureus 4 h ([1]; 4 h): 2.1%
percent growth inhibition S. aureus 24 h ([1]; 24 h): 0.0%
percent growth inhibition S. epidermidis 4 h ([2]; 4 h): 0.0%
percent growth inhibition S. epidermidis 24 h ([2]; 24 h): 0.0%
percent growth inhibition B. subtilis 4 h ([3]; 4 h): 0.0%
percent growth inhibition B. subtilis 24 h ([3]; 24 h): 8.9%
percent growth inhibition M. luteus 4 h ([4]; 4 h): 8.8%
percent growth inhibition M. luteus 24 h ([4]; 24 h): 7.6%

3,28-octanedioic acid ester of betulin [Compound 10]
percent growth inhibition S. aureus 4 h ([1]; 4 h): 0.0%
percent growth inhibition S. aureus 24 h ([1]; 24 h): 0.0%
percent growth inhibition S. epidermidis 4 h ([2]; 4 h): 0.0%
percent growth inhibition S. epidermidis 24 h ([2]; 24 h): 1.7%
percent growth inhibition B. subtilis 4 h ([3]; 4 h): 0.0%
percent growth inhibition B. subtilis 24 h ([3]; 24 h): 2.6%
percent growth inhibition M. luteus 4 h ([4]; 4 h): 0.0%
percent growth inhibition M. luteus 24 h ([4]; 24 h): 2.7%

28-C18-alkenylsuccinic acid diester of betulin [Compound 21]
percent growth inhibition S. aureus 4 h ([1]; 4 h): 0.0%
percent growth inhibition S. aureus 24 h ([1]; 24 h): 0.0%
percent growth inhibition S. epidermidis 4 h ([2]; 4 h): 0.0%
percent growth inhibition S. epidermidis 24 h ([2]; 24 h): 0.0%
percent growth inhibition B. subtilis 4 h ([3]; 4 h): 0.0%
percent growth inhibition B. subtilis 24 h ([3]; 24 h): 6.9%
percent growth inhibition M. luteus 4 h ([4]; 4 h): 0.0%
percent growth inhibition M. luteus 24 h ([4]; 24 h): 10.1%

C=C(C)[C@@H]1CC[C@]2(C(=O)O)CC[C@]3(C)[C@H](CC[C@@H]4[C@@]5(C)CCC(=O)C(C)(C)[C@@H]5CC[C@]43C)[C@@H]12 [Compound 5, betulonic acid]
antibacterial activity [5]: considerable antibacterial activity
percent growth inhibition S. aureus 4 h ([1]; 4 h): 51.6%
percent growth inhibition S. aureus 24 h ([1]; 24 h): 0.0%
percent growth inhibition S. epidermidis 4 h ([2]; 4 h): 52.7%
percent growth inhibition S. epidermidis 24 h ([2]; 24 h): 0.0%
percent growth inhibition B. subtilis 4 h ([3]; 4 h): 102.3%
percent growth inhibition B. subtilis 24 h ([3]; 24 h): 0.0%
percent growth inhibition M. luteus 4 h ([4]; 4 h): 91.3%
percent growth inhibition M. luteus 24 h ([4]; 24 h): 0.0%

C=C(C)[C@@H]1CC[C@]2(C(=O)NC(CC(=O)OC)C(=O)OC)CC[C@]3(C)C(CCC4[C@@]5(C)CCC(=O)C(C)(C)C5CC[C@]43C)C12 (stereo partly shown) [Compound 8, 28-aspartate dimethylesteramide of betulonic acid]
inhibition at 1000 µg/mL [1, 6]: 0%
inhibition at 1000 µg/mL [1, 7]: 0%
inhibition at 1000 µg/mL [2, 8]: 0%
inhibition at 1000 µg/mL [2, 9]: 0%
inhibition at 1000 µg/mL [3, 10]: 0%
inhibition at 1000 µg/mL [3, 11]: 5.8%
inhibition at 1000 µg/mL [4, 12]: 0%
inhibition at 1000 µg/mL [4, 13]: 0%

C=C(C)[C@@H]1CC[C@]2(COC(=O)COc3cc(C(C)C)ccc3C)CC[C@]3(C)[C@H](CC[C@@H]4[C@@]5(C)CC[C@H](O)C(C)(C)[C@@H]5CC[C@]43C)[C@@H]12 [Compound 23, 28-carvacrolacetic acid ester of betulin]
percent growth inhibition S. aureus 4 h ([1]; 4 h): 9.9%
percent growth inhibition S. aureus 24 h ([1]; 24 h): 11.1%
percent growth inhibition S. epidermidis 4 h ([2]; 4 h): 6.8%
percent growth inhibition S. epidermidis 24 h ([2]; 24 h): 0.0%
percent growth inhibition B. subtilis 4 h ([3]; 4 h): 0.7%
percent growth inhibition B. subtilis 24 h ([3]; 24 h): 7.3%
percent growth inhibition M. luteus 4 h ([4]; 4 h): 0.0%
percent growth inhibition M. luteus 24 h ([4]; 24 h): 0.1%

C=C(C)[C@@H]1CC[C@]2(COS(C)(=O)=O)CC[C@]3(C)[C@H](CC[C@@H]4[C@@]5(C)CC[C@H](OC(C)=O)C(C)(C)[C@@H]5CC[C@]43C)[C@@H]12 [Compound 25, betulin 3-acetate-28 mesylate]
percent growth inhibition S. aureus 4 h ([1]; 4 h): 6.9%
percent growth inhibition S. aureus 24 h ([1]; 24 h): 0.0%
percent growth inhibition S. epidermidis 4 h ([2]; 4 h): 3.2%
percent growth inhibition S. epidermidis 24 h ([2]; 24 h): 12.7%
percent growth inhibition B. subtilis 4 h ([3]; 4 h): 0.0%
percent growth inhibition B. subtilis 24 h ([3]; 24 h): 15.2%
percent growth inhibition M. luteus 4 h ([4]; 4 h): 1.6%
percent growth inhibition M. luteus 24 h ([4]; 24 h): 12.4%

C=C(C)[C@@H]1CC[C@]2(COC(=O)c3ccccc3NC(C)=O)CC[C@]3(C)C(CCC4[C@@]5(C)CC[C@H](O)C(C)(C)C5CC[C@]43C)C12 (stereo partly shown) [Compound 29, 28-N-acetylanthranilic acid ester of betulin]
antibacterial activity [5]: considerable antibacterial activity
percent growth inhibition S. aureus 4 h ([1]; 4 h): 102.6%
percent growth inhibition S. aureus 24 h ([1]; 24 h): 103.4%
percent growth inhibition S. epidermidis 4 h ([2]; 4 h): 66.6%
percent growth inhibition S. epidermidis 24 h ([2]; 24 h): 20.2%
percent growth inhibition B. subtilis 4 h ([3]; 4 h): 100.8%
percent growth inhibition B. subtilis 24 h ([3]; 24 h): 54.6%
percent growth inhibition M. luteus 4 h ([4]; 4 h): 89.9%
percent growth inhibition M. luteus 24 h ([4]; 24 h): 60.5%

C=C(C)C1CCC2(COC(=O)C=Cc3ccccc3)CCC3(C)C(CCC4C5(C)CCC(O)C(C)(C)C5CCC43C)C12 (stereo not shown) [Compound 30, 28-cinnamic acid ester of betulin]
percent growth inhibition S. aureus 4 h ([1]; 4 h): 13.0%
percent growth inhibition S. aureus 24 h ([1]; 24 h): 0.0%
percent growth inhibition S. epidermidis 4 h ([2]; 4 h): 8.5%
percent growth inhibition S. epidermidis 24 h ([2]; 24 h): 0.0%
percent growth inhibition B. subtilis 4 h ([3]; 4 h): 5.9%
percent growth inhibition B. subtilis 24 h ([3]; 24 h): 11.1%
percent growth inhibition M. luteus 4 h ([4]; 4 h): 0.0%
percent growth inhibition M. luteus 24 h ([4]; 24 h): 0.0%

CC[C@H]1OC(=O)[C@H](C)[C@@H](O[C@H]2C[C@@](C)(OC)[C@@H](O)[C@H](C)O2)[C@H](C)[C@@H](O[C@@H]2O[C@H](C)C[C@H](N(C)C)[C@H]2O)[C@](C)(O)C[C@@H](C)C(=O)[C@H](C)[C@@H](O)[C@]1(C)O [Compound 31, erythromycin, reference compound]
inhibition at 0.1 µg/mL [1, 6]: 53.6%
inhibition at 1 µg/mL [1, 6]: 79.8%
inhibition at 0.1 µg/mL [1, 7]: 11.7%
inhibition at 1 µg/mL [1, 7]: 72.1%
inhibition at 0.1 µg/mL [2, 8]: 100%
inhibition at 1 µg/mL [2, 8]: 100%
inhibition at 0.1 µg/mL [2, 9]: 90.8%
inhibition at 1 µg/mL [2, 9]: 100%
inhibition at 0.1 µg/mL [3, 10]: 95.6%
inhibition at 1 µg/mL [3, 10]: 100%
inhibition at 0.1 µg/mL [3, 11]: 100%
inhibition at 1 µg/mL [3, 11]: 100%
inhibition at 0.1 µg/mL [4, 12]: 96.1%
inhibition at 1 µg/mL [4, 12]: 100%
inhibition at 0.1 µg/mL [4, 13]: 100%
inhibition at 1 µg/mL [4, 13]: 100%

betulin 3,28-diacetate-18-19-diene [Compound 6]
percent growth inhibition S. aureus 4 h ([1]; 4 h): 0.0%
percent growth inhibition S. aureus 24 h ([1]; 24 h): 0.0%
percent growth inhibition S. epidermidis 4 h ([2]; 4 h): 0.0%
percent growth inhibition S. epidermidis 24 h ([2]; 24 h): 0.0%
percent growth inhibition B. subtilis 4 h ([3]; 4 h): 0.0%
percent growth inhibition B. subtilis 24 h ([3]; 24 h): 3.7%
percent growth inhibition M. luteus 4 h ([4]; 4 h): 0.0%
percent growth inhibition M. luteus 24 h ([4]; 24 h): 1.5%

Source: US20100273801A1, “BETULIN DERIVED COMPOUNDS USEFUL AS ANTIBACTERIAL AGENTS” (Valition teknillinen tutikimuskeskus, priority 2006, published 2010)
